A short description of data set [1]: Molar enthalpy of transition or fusion. Conditions: Crystal; DSC.
The conditions of data set [2]: Crystal; DSC.

Numbers after ± are expanded uncertainties.

On to `O=P(O)(O)c1ccccc1` [phenylphosphonic acid], for which the “Molar enthalpy of transition or fusion” value in data set [1] turned out to be 5.72 ± 0.502 kcal/mol. Also, the Triple point temperature in data set [2] was found to be 437.53 ± 0.93 K.

For the origin of these results see the NIST ThermoML archive (doi:10.1021/acs.jced.9b00362).
